Experimental data reported in patent US20240306670A1, “BERBERINE ALKALOIDS IN THE PREVENTION AND/OR TREATMENT OF INTESTINAL DISEASE” (priority 2017, published 2024).

Test: Feed palatability, feed and water consumption and bird productivity study (Example 2)
Type: in vivo, broiler chickens
Source text: A follow-up study to determine the feed palatability, feed and water consumption and bird productivity following incorporation of a single formulation of IRP001 hemisulfate salt (unmasked) when offered to broiler chickens in-feed or in-water. The study explores the optimal treatment regime in terms of treatment start date.
Phase 1: On receipt, two hundred and seventy (270) day-old commercial broiler chickens were allocated sequentially as they are received into sixteen (16) individual floor pens, each of 16 or 17 birds, on Day 0.
Phase 2: On receipt, the ninety (90) day-old commercial broiler chickens were allocated sequentially as they are received into four (4) individual floor pens, each of 22 or 23 birds, on Day 22.
Feed intake, water intake, weight gain and mortality were used as outcome parameters.
Individual daily feed intake and individual daily water intake data by pen and then by treatment group were calculated for Phases 1 and 2 (and for the entire trial for the birds in Group/Pen 2, 15 and 16 that continue through both Phases) using figures for total feed and water provided each day to each pen divided by the number of birds in each pen. Where errors in weighing, feeding/watering or recording (or other unexplained losses of feed and water) had occurred means were adjusted by using the mean value for the same pen on the 1-2 days either side of the apparent error. Similarly, group mean bodyweights were calculated for Phase 1 using total weight/total no. birds for Day 0 and individual weights from Days 7, 14, 21, 28, 35 and 42. Total (individual) feed consumed was calculated per treatment and feed conversion ratios per treatment calculated using the expression: total (individual) feed/total (individual) weight gain.
Individual daily feed intake and individual daily water intake were statistically compared by treatment within each phase and between Pens 2 and 15/16 over both phases using a linear model:—
and Tibco SPOTFIRE S+ 8.2 (2010). ‘Day’ was included in the model to allow for changes over time, ‘Pen’ as each treatment consisted of 2 pens while an interaction term ‘Treatment:Day’ was included to allow for treatment×time effects. Model suitability was confirmed by inspection of residual plots; in all instances the statistical model was appropriate.

[1] = Phase 1, IVP 1 g/L in-water Day 0-21, pens 3, 4
[2] = Phase 1, IVP 1 g/L in-water Day 1-21, pens 5, 6
[3] = Phase 1, IVP 1 g/L in-water Day 2-21, pens 7, 8
[4] = Phase 1, IVP 1 g/L in-water Day 3-21, pens 9, 10
[5] = Phase 1, IVP 1 g/L in-water Day 4-21, pens 11, 12
[6] = Phase 1, IVP 1 g/L in-water Day 5-21, pens 13, 14
[7] = Phase 1, IVP 1 g/L in-water Day 6-21 (42), pens 15, 16
[8] = Phase 2 (day-old chicks received Day 22), pens 19, 20, Day 25-42FEED (IVP in-feed)
[9] = Phase 2 summary, pens 15, 16, D6-21(42), IVP 1 g/L in-water, birds kept to day 42

## COc1ccc2cc3[n+](cc2c1OC)CCc1cc2c(cc1-3)OCO2 [IRP001 chloride, berberine chloride]
[1]
  FCR: 1.49
  Gain: 0.610 kg
  Group mean bodyweight Day 0: 43.2
  Group mean bodyweight Day 7: 118.1
  Group mean bodyweight Day 14: 291.9
  Group mean bodyweight Day 22: 653.6
  Total Feed: 0.908 kg
[2]
  FCR: 1.50
  Gain: 0.678 kg
  Group mean bodyweight Day 0: 42.4
  Group mean bodyweight Day 7: 125.8
  Group mean bodyweight Day 14: 309.0
  Group mean bodyweight Day 22: 720.7
  Total Feed: 1.019 kg
[3]
  FCR: 1.45
  Gain: 0.675 kg
  Group mean bodyweight Day 0: 44.6
  Group mean bodyweight Day 7: 132.0
  Group mean bodyweight Day 14: 315.4
  Group mean bodyweight Day 22: 719.4
  Total Feed: 0.977 kg
[4]
  FCR: 1.44
  Gain: 0.653 kg
  Group mean bodyweight Day 0: 42.4
  Group mean bodyweight Day 7: 118.6
  Group mean bodyweight Day 14: 295.1
  Group mean bodyweight Day 22: 695.7
  Total Feed: 0.939 kg
[5]
  FCR: 1.46
  Gain: 0.716 kg
  Group mean bodyweight Day 0: 41.8
  Group mean bodyweight Day 7: 138.8
  Group mean bodyweight Day 14: 320.3
  Group mean bodyweight Day 22: 758.2
  Total Feed: 1.046 kg
[6]
  FCR: 1.48
  Gain: 0.680 kg
  Group mean bodyweight Day 0: 44.3
  Group mean bodyweight Day 7: 135.3
  Group mean bodyweight Day 14: 316.8
  Group mean bodyweight Day 22: 724.7
  Total Feed: 1.010 kg
[7]
  FCR: 1.40
  Gain: 0.723 kg
  Group mean bodyweight Day 0: 43.8
  Group mean bodyweight Day 7: 139.1
  Group mean bodyweight Day 14: 325.2
  Group mean bodyweight Day 22: 767.2
  Total Feed: 1.016 kg
[8]
  Bodyweight Day 28: 112.4 g
  Bodyweight Day 35: 273.6 g
  Bodyweight Day 42: 614.9 g
  FCR: 1.56
  Feed: 0.783 kg
  Gain: 0.502 kg
[9]
  Bodyweight Day 28: 1.16 kg
  Bodyweight Day 35: 1.66 kg
  Bodyweight Day 42: 2.39 kg
  FCR: 1.64
  Feed: 3.841 kg
  Gain: 2.346 kg
